Two compounds from patent publication US20230108699A1, “HEART EXTRACELLULAR MATRIX-DERIVED SCAFFOLD FOR CULTURE AND TRANSPLANTATION OF CARDIAC ORGANOID AND METHOD OF PREPARING THE SAME” (CELLARTGEN INC., priority 2020, published 2023) can be followed below.

Each structure is given as a SMILES string.

This experiment deals with human cardiac organoid cultured in the HEM hydrogel. Description: Drug reactivity of HEM scaffold-based human cardiac organoid by calcium imaging. In kind it is cell-based. The note with it: 7th day of culture, HEM hydrogel 4 mg/ml. On the procedure:
In order to check the reactivity of the human cardiac organoid cultured in the HEM hydrogel (4 mg/ml) to drugs, treatment with two representative drugs (isoproterenol and propranolol) affecting the heart rate was performed on the 7th day of culture, and reaction of the organoid thereto was checked through calcium imaging.

In the case of `CC(C)NCC(O)COc1cccc2ccccc12` (centres unmarked) [propranolol], the “beating of cardiac organoid” value (propranolol 10 μM) was “decreased”. As to `CC(C)NCC(O)c1ccc(O)c(O)c1` (centres unmarked) [isoproterenol], the “beating of cardiac organoid” value (isoproterenol 1 μM) is reported as “increased”.
